Assay results: patent publication US7223755B2, “Hydroxymorpholinone derivative and medicinal use thereof” (Senju Pharmaceutical Co., Ltd., priority 2002, dated 2007)

Key:
[1] = tested on: T1, μ-calpain (derived from human erythrocyte); assay: μ-calpain inhibitory activity (casein substrate, Coomassie brilliant blue); type: biochemical; conditions: 0.5 mg/mL casein, 30° C. for 60 min; read-out: 50% enzyme inhibitory concentration [IC50 (μM)] μ-calpain
T1 construct: μ-calpain (derived from human erythrocyte, manufactured by Cosmo Bio Co., Ltd.); purchased Cosmo Bio Co., Ltd; host or cells: human erythrocyte (natural source)
Method: The μ-calpain and m-calpain inhibitory activities were determined according to the method described in a reference [Anal. Biochem. vol. 208, 387-392 (1993)]. To be specific, a reaction mixture (200 μL) containing 0.5 mg/mL casein, 50 mM Tris-HCl buffer (pH 7.4), 20 mM dithiothreitol and 0.03 enzyme unit of μ-calpain (derived from human erythrocyte, manufactured by Cosmo Bio Co., Ltd.) or m-calpain (derived from pig kidney, manufactured by Cosmo Bio Co., Ltd.), dimethyl sulfoxide solution (2.5 μL) containing various concentrations of a test drug and 20 mM aqueous calcium chloride solution (50 μL) were added to a 96 well plate. After reaction at 30° C. for 60 min, the reaction mixture (100 μL) was transferred to a different 96 well plate, and purified water (50 μL) and 50% Coomassie brilliant blue solution (100 μL) were added. The plate was left standing at room temperature for 15 min and absorbance at 595 nm was measured. Using a value, measured after treating in the same manner without a test drug, as a control and a value, obtained by adding 1 mM EDTA instead of 20 mM aqueous calcium chloride solution, as a blank value, an inhibitory rate was calculated from the following formula and the amount (IC50) necessary for 50% inhibition was determined. Inhibitory rate (%)={1−(measured value−blank value)/(control value−blank value)}×100 Test Results 1

Compound	IC50 [1] [µM]	melting point [°C]
CC(C)C[C@@H]1OC(O)[C@@H](Cc2ccccc2)NC1=O (stereo partly drawn) [Compound 4, (2S,5R)-5-benzyl-6-hydroxy-2-(2-methylpropyl)-3-morpholinone]	5.9	130.9 to 131.8
CC(C)C[C@@H]1OC(O)[C@H](CCc2ccccc2)NC1=O (stereo partly drawn) [Compound 2, (2S,5S)-6-hydroxy-2-(2-methylpropyl)-5-(2-phenylethyl)-3-morpholinone]	0.51	94.1 to 95.8
O=C1N[C@@H](Cc2ccccc2)C(O)O[C@H]1Cc1ccccc1 (stereo partly drawn) [Compound 7, (2S,5S)-2,5-dibenzyl-6-hydroxy-3-morpholinone]	17	165.5 to 166
CC(C)C[C@@H]1OC(O)[C@H](Cc2ccc(O)cc2)NC1=O (stereo partly drawn) [Compound 8, (2S,5S)-6-hydroxy-5-((4-hydroxyphenyl)methyl)-2-(2-methylpropyl)-3-morpholinone]	2.5	
CC(C)C[C@@H]1OC(O)[C@H](Cc2ccc(OCC3CCCCC3)cc2)NC1=O (stereo partly drawn) [Compound 11, (2S,5S)-5-((4-(cyclohexylmethoxy)phenyl)methyl)-6-hydroxy-2-(2-methylpropyl)-3-morpholinone]	0.45	
CC(C)C[C@@H]1OC(O)[C@H](Cc2ccccc2F)NC1=O (stereo partly drawn) [Compound 12, (2S,5S)-5-((2-fluorophenyl)methyl)-6-hydroxy-2-(2-methylpropyl)-3-morpholinone]	2.1	83.9 to 87.9
CC(C)C[C@@H]1OC(O)[C@H](CCCCNC(=O)c2ccccc2)NC1=O (stereo partly drawn) [Compound 16, (2S,5S)-5-(4-(benzoylamino)butyl)-6-hydroxy-2-(2-methylpropyl)-3-morpholinone]	1.1	128.4 to 129
(2S,5S)-5-((4-biphenyl)methyl)-6-hydroxy-2-(2-methylpropyl)-3-morpholinone [Compound 15]	0.25	
COc1ccc(C[C@@H]2NC(=O)[C@H](CC(C)C)OC2O)cc1 (stereo partly drawn) [Compound 9, (2S,5S)-6-hydroxy-5-((4-methoxyphenyl)methyl)-2-(2-methylpropyl)-3-morpholinone]	0.68	
CC(C)C[C@@H]1OC(O)[C@H](Cc2ccccc2Cl)NC1=O (stereo partly drawn) [Compound 13, (2S,5S)-5-((2-chlorophenyl)methyl)-6-hydroxy-2-(2-methylpropyl)-3-morpholinone]	0.93	
CC(C)C[C@@H]1OC(O)[C@H](COCc2ccccc2)NC1=O (stereo partly drawn) [Compound 14, (2S,5S)-5-benzyloxymethyl-6-hydroxy-2-(2-methylpropyl)-3-morpholinone]	0.82	
CC(C)C[C@@H]1OC(O)[C@H](Cc2ccccc2)NC1=O (stereo partly drawn) [Compound 1, (2S,5S)-5-benzyl-6-hydroxy-2-(2-methylpropyl)-3-morpholinone]	0.7	
CCCCOc1ccc(C[C@@H]2NC(=O)[C@H](CC(C)C)OC2O)cc1 (stereo partly drawn) [Compound 10, (2S,5S)-5-((4-butoxyphenyl)methyl)-6-hydroxy-2-(2-methylpropyl)-3-morpholinone]	0.52	
CC(C)[C@@H]1OC(O)[C@H](Cc2ccccc2)NC1=O (stereo partly drawn) [Compound 5, (2S,5S)-5-benzyl-6-hydroxy-2-(1-methylethyl)-3-morpholinone]	2.3	
CC(C)[C@@H]1OC(O)[C@H](CCc2ccccc2)NC1=O (stereo partly drawn) [Compound 6, (2S,5S)-6-hydroxy-2-(1-methylethyl)-5-(2-phenylethyl)-3-morpholinone]	3.5	
CC(C)C[C@@H]1OC(O)[C@H](Cc2ccc3ccccc3c2)NC1=O (stereo partly drawn) [Compound 3, (2S,5S)-6-hydroxy-2-(2-methylpropyl)-5-(2-naphthylmethyl)-3-morpholinone]	0.49	86.5 to 88.5
